According to patent publication US7521418B2, “Use of a polyene macrolide antifungal agent in combination with a glycopeptide antibacterial agent” (Theravance, Inc., priority 2003, dated 2009):

Tests used:
[1] = system: C. albicans ATCC 24433; experiment: Checkerboard MIC assay, FICI; assay type: cell-based, Candida albicans; conditions: combination with Compound 1; C. albicans ATCC 24433
Source text: The following assay was used to determine the minimum inhibitory concentration (MIC) and fractional inhibitory concentration index (FICI) for combinations of an antifungal agent and a glycopeptide antibacterial agent. This assay and methods for calculating FICI are well known in the art. See, for example, Eliopoulos, E. G. and R. Moellering, Jr. “Antimicrobial Combinations” in Antibiotics in Laboratory Medicine, edited by V. Lorian, 4th Ed., Williams & Wilkins, Baltimore, MD, pp. 330-396 (1996); […] et al., Antimicrobial Agents and Chemotherapy 47(4):1416-1418 (2003); or […] et al., Antimicrobial Agents and Chemotherapy 46(10):3323-3326 (2002). Procedures, protocols, supplies and equipment used in this assay follow the recommendations approved and published by the National Committee for Clinical Laboratory Standards (NCCLS), Wayne, Pa. as described in NCCLS 2003, “Reference Method for Broth Dilution Antimicrobial Susceptibility Tests for Bacteria that Grow Aerobically; Approved Standard” (NCCLS document M7-A6); NCCLS 2002, “Reference Method for Broth Dilution Antifungal Susceptibility Tests of Filamentous Fungi that Grow Aerobically; Approved Standard” (NCCLS document M38-A); and NCCLS 2002 “Reference Method for Broth Dilution Antifungal Susceptibility Tests of Yeast; Approved Standards-2nd Edition” (NCCLS document M27-A2). Using a checkerboard method, a 2-fold dilution 100× final concentration master plate was prepared using a 96-well U-shape microtiter plate and an appropriate solvent. In the “checkerboard” method, a microtiter plate is divided into “columns” in which each well in the column contains the same amount of an antifungal agent (Compound A) being diluted along the x-axis, and “rows” in which each well in the row contains the same amount of a glycopeptide antibacterial agent (Compound B) being diluted on the y-axis. Also included is a row (or column) for Compound A or B alone. The dilutions used in the checkerboard are exponential (by powers of two). The result is that each well in the microtiter plate contains a unique concentration of the two compounds being tested. […] After mixing, 100 μL of 2× drug combinations were distributed into 96-well microtiter plates. […] Compound A was not added to Column 12, so Column 12 contained only Compound B. Compound B was diluted from row A starting at 6,400 μg/mL down to row G (100 μg/mL). Wells in Row A contained a final concentration of 64 μg/mL of Compound B; Row B contained a final concentration of 32 μg/mL of Compound B; Row C contained a final concentration of 16 μg/mL of Compound B; etc. Compound B was not added to Row H, so Row H only contained Compound A. […] The MIC of the glycopeptide antibacterial agent determined from this experiment was used in FIC calculations. […] RPMI-1640 without sodium bicarbonate media (GIBCO-BRL, Carlsbad, Calif.), an enriched media formulated for mammalian cells, was used according to the NCCLS guidelines for yeast and filamentous fungi susceptibility testing. The medium was buffered with 0.165 M 3-[N-Morpholino]propanesulfonic acid (MOPS) supplemented with 20 g/L glucose and pH adjusted to 7.0 with hydrogen chloride. Sabouraud Dextrose Agar ([…] plates, and Potato Dextrose Agar (PDA) plates were purchased from Hardy Diagnostic (Santa Maria, Calif.). Yeast cultures were started from -80° C. frozen stock streaked on […] incubated at 35° C. under aerobic conditions for 24 h. The […] in the refrigerator for up to 2 weeks and used regularly as a starting culture. About 24 to 48 h before each assay was run, yeasts were streaked on SDA plates for isolated colonies. To prepare the inoculum, from one to four colonies were resuspended in 5 mL of saline, and vortexed for 15 sec. […] For most yeast and mold cultures, the optical density (OD) of the suspension was adjusted to 0.11 in saline to provide 0.4×10^6 CFU/mL. However, for Fusarium moniliforme and Pseudallescheria boydii the OD of the suspension was adjusted to OD=0.17 to provide 0.4×10^6 CFU/mL. […]

[2] = system: C. neoformans ATCC 56991; experiment: Checkerboard MIC assay, FICI; assay type: cell-based, Cryptococcus neoformans; conditions: combination with Compound 1
Source text: The following assay was used to determine the minimum inhibitory concentration (MIC) and fractional inhibitory concentration index (FICI) for combinations of an antifungal agent and a glycopeptide antibacterial agent. This assay and methods for calculating FICI are well known in the art. See, for example, Eliopoulos, E. G. and R. Moellering, Jr. “Antimicrobial Combinations” in Antibiotics in Laboratory Medicine, edited by V. Lorian, 4th Ed., Williams & Wilkins, Baltimore, MD, pp. 330-396 (1996); […] et al., Antimicrobial Agents and Chemotherapy 47(4):1416-1418 (2003); or […] et al., Antimicrobial Agents and Chemotherapy 46(10):3323-3326 (2002). […] The MIC of the glycopeptide antibacterial agent determined from this experiment was used in FIC calculations. […]

Structure (SMILES)	FICI [1]	FICI [2]
C[C@@H]1[C@H](O)[C@@H](C)/C=C/C=C/C=C/C=C/C=C/C=C/C=C/[C@H](O[C@@H]2O[C@H](C)[C@@H](O)[C@H](N)[C@@H]2O)C[C@@H]2O[C@](O)(C[C@@H](O)C[C@@H](O)[C@H](O)CC[C@@H](O)C[C@@H](O)CC(=O)O[C@H]1C)C[C@H](O)[C@H]2C(=O)O [Amphotericin B]	0.19	0.25
C[C@@H]1[C@H](O)[C@@H](C)/C=C/C=C/CC/C=C/C=C/C=C/C=C/C(O[C@H]2O[C@H](C)[C@@H](O)[C@H](N)[C@@H]2O)CC2O[C@](O)(CC(O)C(O)CCC(O)CC(O)CC(O)CC(=O)O[C@H]1C)CC(O)C2C(=O)O (stereo partly shown) [Nystatin]	0.31	0.5
